According to PMC11266321 (EJNMMI Radiopharmacy and Chemistry, 2024):
“And” between values parts separate entries of the source, which are not always exact repeats. Identical values can stand only once.

Columns and labels:
GABA B = molecular target: T1, GABA B (Homo sapiens, UniProt Q9UBS5); assay: Radioligand binding inhibition, GABA B; settings: 10 µM; radioligand [^3H]GABA; mean of duplicate
T1 construct: Sekisui Medical (contract laboratory)
Method: (§1) Interaction of MMP with 28 binding sites was examined, including major classes of neurotransmitter receptor, uptake system, and ion channels (Sekisui Medical, Naka, Japan). MMP was tested in all assays at 10 µM. […] Each determination was made in duplicate.
(§2) Test substance concentration : 10 µM, positive substance concentration : 10 µM
(§3) Data are expressed as the mean values of duplicate samples.
(§4) The % inhibition was calculated from “100 – binding ratio”.
(§5) Binding ratio: [(B - N) / (B0 - N)] × 100 (%)
(§6) B: Bound radioactivity in the presence of test substance and positive substance (individual value)
(§7) B0: Total bound radioactivity in the absence of test substance and positive substance (mean value)
(§8) N: Non-specific bound radioactivity (mean value)

[1] = molecular target: T2, Glutamate (NMDA glycine site) (Homo sapiens, UniProt Q05586); assay: Radioligand binding inhibition, Glutamate NMDA glycine site; settings: 10 µM; radioligand [^3H]MDL105,519; mean of duplicate
T2 construct: Sekisui Medical (contract laboratory)
Method: (§9) Interaction of MMP with 28 binding sites was examined, including major classes of neurotransmitter receptor, uptake system, and ion channels (Sekisui Medical, Naka, Japan). MMP was tested in all assays at 10 µM. […] 10.2.3 (GraphPad Software, San Diego, CA). Each determination was made in duplicate.
as §2, §3, §4, §5, §6, §7, §8

Glutamate (AMPA) = assay: Radioligand binding inhibition, Glutamate AMPA; settings: 10 µM; radioligand [^3H]AMPA; mean of duplicate
Method: as §9, §2, §3, §4, §5, §6, §7, §8

Dopamine D1 = molecular target: T3, Dopamine D1 (Homo sapiens, UniProt P21728); assay: Radioligand binding inhibition, Dopamine D1; settings: 10 µM; radioligand [^3H]SCH23390; mean of duplicate
T3 construct: Sekisui Medical (contract laboratory)
T3 sequence (P21728 whole entry): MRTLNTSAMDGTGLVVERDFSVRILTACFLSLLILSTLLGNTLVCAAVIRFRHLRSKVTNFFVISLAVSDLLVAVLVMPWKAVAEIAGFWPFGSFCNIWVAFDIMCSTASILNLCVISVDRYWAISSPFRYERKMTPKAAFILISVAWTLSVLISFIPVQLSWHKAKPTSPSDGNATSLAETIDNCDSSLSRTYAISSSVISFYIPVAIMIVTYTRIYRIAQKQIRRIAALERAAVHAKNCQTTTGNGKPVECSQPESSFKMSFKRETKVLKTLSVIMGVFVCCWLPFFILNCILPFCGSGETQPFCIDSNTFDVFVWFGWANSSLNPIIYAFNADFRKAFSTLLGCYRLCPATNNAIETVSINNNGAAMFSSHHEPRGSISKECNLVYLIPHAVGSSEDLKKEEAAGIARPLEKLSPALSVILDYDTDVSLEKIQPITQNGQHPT
Method: as §1, §2, §3, §4, §5, §6, §7, §8

[2] = system: β-Adrenergic (non-selective); assay: Radioligand binding inhibition, β-Adrenergic; settings: 10 µM; radioligand [^3H]DHA; mean of duplicate
Method: as §9, §2, §3, §4, §5, §6, §7, §8

Serotonin 5HT1A = molecular target: T4, Serotonin 5HT1A (Homo sapiens, UniProt P08908); assay: Radioligand binding inhibition, Serotonin 5HT1A; settings: 10 µM; radioligand [^3H]8-OH DPAT; mean of duplicate
T4 construct: Sekisui Medical (contract laboratory)
T4 sequence (P08908 whole entry): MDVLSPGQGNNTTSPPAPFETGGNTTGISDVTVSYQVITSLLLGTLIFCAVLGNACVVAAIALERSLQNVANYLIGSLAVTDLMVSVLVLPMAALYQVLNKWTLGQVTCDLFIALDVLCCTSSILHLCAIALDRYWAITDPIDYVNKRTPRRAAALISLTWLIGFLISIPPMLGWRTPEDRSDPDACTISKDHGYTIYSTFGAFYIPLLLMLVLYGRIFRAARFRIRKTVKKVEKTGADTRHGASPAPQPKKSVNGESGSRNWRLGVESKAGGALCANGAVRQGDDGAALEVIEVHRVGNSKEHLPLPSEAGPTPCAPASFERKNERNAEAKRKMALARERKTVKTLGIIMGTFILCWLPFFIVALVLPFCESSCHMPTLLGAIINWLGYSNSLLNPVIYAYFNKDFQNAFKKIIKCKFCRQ
Method: as §9, §2, §3, §4, §5, §6, §7, §8

[3] = system: α1-Adrenergic (non-selective); assay: Radioligand binding inhibition, α1-Adrenergic; settings: 10 µM; radioligand [^3H]Prazosin; mean of duplicate
Muscarinic M1 = molecular target: T5, Muscarinic M1 (Homo sapiens, UniProt P11229); type: binding; settings: 10 µM; radioligand [^3H]Pirenzepine; mean of duplicate
T5 construct: Sekisui Medical (contract laboratory)
T5 sequence (P11229 whole entry): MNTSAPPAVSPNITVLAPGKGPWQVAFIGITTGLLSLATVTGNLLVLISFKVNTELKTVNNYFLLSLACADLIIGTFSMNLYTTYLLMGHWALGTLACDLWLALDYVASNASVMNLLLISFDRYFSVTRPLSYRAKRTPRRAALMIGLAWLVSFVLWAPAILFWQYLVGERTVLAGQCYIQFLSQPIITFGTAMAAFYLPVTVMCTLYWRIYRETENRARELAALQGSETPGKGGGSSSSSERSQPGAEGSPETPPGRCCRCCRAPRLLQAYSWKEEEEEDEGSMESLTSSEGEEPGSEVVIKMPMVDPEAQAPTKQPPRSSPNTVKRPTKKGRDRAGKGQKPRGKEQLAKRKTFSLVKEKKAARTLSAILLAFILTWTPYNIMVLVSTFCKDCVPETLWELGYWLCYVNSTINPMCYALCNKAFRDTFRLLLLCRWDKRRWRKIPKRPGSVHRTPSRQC

[4] = system: Glutamate (NMDA agonist site); assay: Radioligand binding inhibition, Glutamate NMDA agonist site; settings: 10 µM; radioligand [^3H]CGP-39653; mean of duplicate
Method: as §9, §2, §3, §4, §5, §6, §7, §8

Sigma (non-selective) = assay: Radioligand binding inhibition and competitive inhibition curve, sigma receptor
Method: as §1
Data are expressed as mean values of duplicate samples.
as §2, §3, §4, §5, §6, §7, §8

[5] = system: Salmonella typhimurium (TA98, TA100, TA1535, and TA1537); assay: Ames test (reverse bacterial mutation test), Salmonella; type: cell-based; settings: with and without S9 mixture, 78.1–5000 µg/plate
Source text: (§10) The MMP was custom synthesized by the Nard Institute (Kobe, Japan) using methods described previously (Toyohara et al. [2020a]). All other chemical reagents were obtained from commercial sources. Male ddY mice were obtained from Japan SLC (Hamamatsu, Japan). Sprague–Dawley rats [Crl: CD(SD)] were obtained from […] (Yokohama, Japan). Animal studies were approved by the Animal Care and Use Committee of the Tokyo Metropolitan Institute for Geriatrics and Gerontology (Approval Nos. 22,015 and 23,007) and Nihon Bioresearch (Hashima, Japan; Approval Nos. 430,085 and 430,086). Acute toxicity studies were performed under the “Revisions of the Guidelines for Single and Repeated Dose Toxicity Studies” (PMDA, 1993). Ames test was performed under the “Guidance on Genotoxicity Testing and Data Interpretation for Pharmaceuticals Intended for Human Use” (PMDA, 2012).
Mutagenicity tests were performed at the Hashima Research Center, Nihon Bioresearch, under non-GLP control. MMP was tested for mutagenicity by the Ames test with four histidine-requiring strains of Salmonella typhimurium (TA98, TA100, TA1535, and TA1537) and one strain of Escherichia coli (WP2uvrA), with and without the S9 mixture, at a dose range of 78.1–5000 µg/plate according to the standard method.

Sprague–Dawley rats = assay: Acute toxicity of MMP, single intraperitoneal injection; type: in vivo, rat
Source text: as §10
In Japan, the structure of nonclinical toxicology studies for PET drugs in clinical research is the responsibility of the ethics committee of each institution or the subcommittee of specialities of PET drugs. According to the method used previously for approval of PET drugs for clinical use in our institute (Toyohara et al. [2013], [2016], [2020b]; Sakata et al. [2017]), we performed single-arm acute toxicology studies of the active pharmaceutical ingredient (MMP) and final dose formulation ([^11C]MMP injection). Mutagenicity tests will also be conducted, as there are concerns about stochastic effects on genotoxicity.
Acute toxicity studies were performed at the Hashima Research Center, Nihon Bioresearch, under non-Good Laboratory Practice (GLP) control. Acute toxicity of MMP was tested in Sprague–Dawley rats. MMP at a dose of 3.55 mg/kg body weight (0.71 mg/mL in 10 v/v% dimethyl sulfoxide containing water for injection) was injected intraperitoneally into 5-week-old rats weighing 143–172 g (male, n = 5) and 129–135 g (female, n = 5). The dose of 3.55 mg/kg body weight is the 10,000-fold equivalent of the postulated maximum administration dose (1.85 nmol/0.355 µg/kg body weight) of 740 MBq [^11C]MMP, with the lowest molar activity (Am) of 10 MBq/nmol for humans weighing 40 kg. Rats were observed frequently until 1 h and then at 2, 4, and 6 h after the injection on day 1, and thereafter once daily for 14 days for clinical signs of toxicity. Rats were weighed on days 1, 2, 4, 7, 10, and 14. At the end of the 14-day observation period, the rats were euthanized by exsanguination under isoflurane anaesthesia, and a macroscopic analysis of the autopsy samples was performed.

T1 sequence (Q9UBS5 15-961 limits assumed): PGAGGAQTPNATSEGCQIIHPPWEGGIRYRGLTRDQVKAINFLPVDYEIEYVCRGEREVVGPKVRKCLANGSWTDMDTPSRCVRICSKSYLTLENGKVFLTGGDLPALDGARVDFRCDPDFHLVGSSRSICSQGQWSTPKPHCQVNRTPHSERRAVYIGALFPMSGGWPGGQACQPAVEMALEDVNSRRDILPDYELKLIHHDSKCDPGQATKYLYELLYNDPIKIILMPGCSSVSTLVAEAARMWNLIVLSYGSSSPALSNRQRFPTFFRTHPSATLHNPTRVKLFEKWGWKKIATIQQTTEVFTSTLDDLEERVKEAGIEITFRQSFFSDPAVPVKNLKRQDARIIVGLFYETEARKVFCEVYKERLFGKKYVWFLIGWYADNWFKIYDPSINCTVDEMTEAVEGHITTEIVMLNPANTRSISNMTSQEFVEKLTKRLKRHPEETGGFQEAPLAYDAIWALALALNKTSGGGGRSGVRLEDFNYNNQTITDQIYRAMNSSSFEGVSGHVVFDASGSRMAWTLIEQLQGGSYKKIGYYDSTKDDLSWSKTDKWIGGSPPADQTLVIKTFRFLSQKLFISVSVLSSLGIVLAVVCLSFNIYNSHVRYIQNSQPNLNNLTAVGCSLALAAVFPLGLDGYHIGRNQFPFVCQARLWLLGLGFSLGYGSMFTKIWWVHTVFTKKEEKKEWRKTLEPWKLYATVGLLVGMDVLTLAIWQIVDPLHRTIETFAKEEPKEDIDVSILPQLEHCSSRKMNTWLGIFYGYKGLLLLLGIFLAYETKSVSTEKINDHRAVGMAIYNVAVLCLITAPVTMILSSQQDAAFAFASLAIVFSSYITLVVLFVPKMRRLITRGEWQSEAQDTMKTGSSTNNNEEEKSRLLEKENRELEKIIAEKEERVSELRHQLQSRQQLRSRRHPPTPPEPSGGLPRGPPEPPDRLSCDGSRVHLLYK
T1 sequence (O75899 42-941 partner): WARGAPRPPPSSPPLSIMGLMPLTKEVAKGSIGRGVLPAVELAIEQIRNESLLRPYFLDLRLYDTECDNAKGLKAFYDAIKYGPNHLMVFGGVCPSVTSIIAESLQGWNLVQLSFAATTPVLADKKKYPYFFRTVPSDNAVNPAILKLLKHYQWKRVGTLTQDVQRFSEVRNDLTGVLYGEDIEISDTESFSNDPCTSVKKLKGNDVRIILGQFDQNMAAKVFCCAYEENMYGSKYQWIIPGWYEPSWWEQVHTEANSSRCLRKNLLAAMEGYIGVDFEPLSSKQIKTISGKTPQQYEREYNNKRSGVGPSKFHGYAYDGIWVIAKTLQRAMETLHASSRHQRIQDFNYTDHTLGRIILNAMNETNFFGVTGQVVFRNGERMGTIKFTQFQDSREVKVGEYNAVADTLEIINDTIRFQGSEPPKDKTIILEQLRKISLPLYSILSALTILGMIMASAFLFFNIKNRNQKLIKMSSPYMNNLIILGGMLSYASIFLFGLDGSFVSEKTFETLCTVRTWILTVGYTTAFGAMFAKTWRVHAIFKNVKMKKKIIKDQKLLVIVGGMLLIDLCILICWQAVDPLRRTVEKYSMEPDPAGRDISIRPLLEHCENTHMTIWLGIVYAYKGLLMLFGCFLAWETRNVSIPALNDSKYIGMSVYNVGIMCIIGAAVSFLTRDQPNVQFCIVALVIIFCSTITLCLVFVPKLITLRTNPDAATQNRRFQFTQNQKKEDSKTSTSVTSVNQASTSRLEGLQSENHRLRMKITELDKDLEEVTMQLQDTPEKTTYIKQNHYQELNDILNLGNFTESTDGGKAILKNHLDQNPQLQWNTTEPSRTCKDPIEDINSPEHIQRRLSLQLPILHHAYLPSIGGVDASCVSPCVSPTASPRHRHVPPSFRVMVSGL

Cc1ccc(CC(C)NC(C)C)cc1 (stereo not shown) [MMP, N-isopropyl-p-methylamphetamine]
Inhibition ratio (%) (GABA B): 1.59% | Inhibition ratio (%) [1]: 0.22% | Inhibition ratio (%) (Glutamate (AMPA)): 5.98% | Inhibition ratio (%) (Dopamine D1): 6.90% | Inhibition ratio (%) [2]: 32.80% | Inhibition ratio (%) (Serotonin 5HT1A): 15.84% | Inhibition ratio (%) [3]: 44.47% | Inhibition ratio (%) (Muscarinic M1): 27.81% | Inhibition ratio (%) [4]: 4.63% | Inhibition ratio (%) (Sigma (non-selective); 10 µM, radioligand [^3H]DTG, mean of duplicate): 86% and 85.89% | IC50 (Sigma (non-selective); competitive inhibition curve, [^3H]DTG, duplicate): 1100 nM | affinity for sigma receptor relative to existing sigma receptor ligand (haloperidol) (Sigma (non-selective); fraction of the affinity of haloperidol): approximately 1/100 | mutagenic activity [5]: no mutagenic activity | NOAEL as multiple of postulated maximum administration dose (Sprague–Dawley rats; 740 MBq, Am 10 MBq/nmol, human body weight 40 kg): 1,600 times | acute toxicity (Sprague–Dawley rats; rats, 3.55 mg/kg body weight (10,000 times potential maximum clinical dose)): No acute toxicity | body weight gain (Sprague–Dawley rats; rats, single i.p. 3.55 mg/kg): normal gains in body weight | post-mortem macroscopic examination (Sprague–Dawley rats; rats, single i.p. 3.55 mg/kg): no abnormalities | mortality (Sprague–Dawley rats; rats, single i.p. 3.55 mg/kg, 14-day observation): no mortality | clinical signs of toxicity (Sprague–Dawley rats; rats, single i.p. 3.55 mg/kg, 15-day period): no clinical signs of toxicity
